Like-named read-outs stand apart in the source and are kept apart here.
Experiments:
in vitro = details: human, Caco-2, pH 7.4
In short: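 Compound at 10 μM in HBSS pH 7.4 dosed A-to-B and B-to-A across Caco-2 monolayers, 90 min at 37 °C, duplicates. Monolayer integrity by TEER and lucifer yellow (5 μM, fluorescence 485/535 nm); compound quantified by LC-MS/MS.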

CXCR4 (U87.CXCR4 cells) = molecular target: T1, CXCR4 (U87.CXCR4 cells) (Homo sapiens, UniProt P61073); experiment: Intracellular CXCL-12-induced calcium mobilization assay (FLIPR); type: cell-based; details: CXCL-12 25-50 ng/mL, read-out: IC50 CXCL-12 Ca2+ flux U87.CXCR4+
T1 construct: expressed in transfected cells; host or cells: U87 (U87.CXCR4)
T1 sequence (P61073 whole entry): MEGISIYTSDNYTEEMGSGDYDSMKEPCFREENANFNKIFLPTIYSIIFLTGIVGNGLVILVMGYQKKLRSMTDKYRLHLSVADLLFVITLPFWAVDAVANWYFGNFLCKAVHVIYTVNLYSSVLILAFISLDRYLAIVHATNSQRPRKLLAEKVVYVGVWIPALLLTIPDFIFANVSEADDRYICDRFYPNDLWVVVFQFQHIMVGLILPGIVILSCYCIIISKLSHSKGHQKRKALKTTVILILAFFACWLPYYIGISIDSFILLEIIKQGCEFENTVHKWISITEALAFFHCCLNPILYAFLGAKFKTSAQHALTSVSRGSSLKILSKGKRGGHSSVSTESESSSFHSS
In short: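 U87.CXCR4 cells were loaded with 4 μM Fluo-2 AM for 45 min at 37 °C in HBSS/20 mM HEPES/0.2% BSA, pH 7.4. Calcium flux induced by CXCL-12 (25-50 ng/mL) was monitored kinetically by FLIPR fluorescence at 37 °C.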

[1] = molecular target: T2, CXCR4 (Jurkat cells expressing CXCR4) (Homo sapiens, UniProt P61073); experiment: Chemokine (CXCL12-AF647) binding inhibition assay; details: CXCL12-AF647 25 ng/mL, read-out: IC50 CXCL-12 binding Jurkat
T2 construct: Jurkat cells expressing CXCR4; endogenous in cells; host or cells: Jurkat
T2 sequence (P61073 whole entry): as above
In short: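 Cells in HBSS, 20 mM HEPES, 0.2% BSA, pH 7.4, preincubated 15 min at room temperature with compound, then 25 ng/mL CXCL12-AF647 for 30 min. After washing and paraformaldehyde fixation, bound ligand read by flow cytometry; percent inhibition calculated from MFI relative to unlabeled and ligand-only controls.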

[2] = Mouse brain uptake assay (pharmacokinetics and brain penetration after IV administration); type: in vivo, Male CD1 Mice; details: male, 3 mg/kg IV, 3 time points; for Kp: CD1, brain and plasma, read-out: Kp (brain/plasma drug concentration ratio, AUC last(b)/AUC last(p)); for Kp / clearance / half-life: mouse, 0-1 h; for clearance / half-life: CD1, plasma; for clearance: read-out: Cl (Clearance) (converted); for half-life: read-out: t½ (half life) (converted); for AUC(0-t): CD1, time zero to 1 hr
Experimental: Example 15: Pharmacokinetics and Brain Penetration Experiment to Determine Brain and Plasma Concentrations of Compounds after IV Administration to Male CD1 Mice or Male SD Rats
The study design (9 animals) consisted of administrating the drug (IV: 3 mg/kg (5 mL/kg) via tail vein injection) and collecting samples at terminal bleeding for plasma and brain at 0.083, 0.5 and 1 h. The blood collection was performed as follows: the animal was restrained manually and approximately 150 μL blood/time point was collected into a dipotassium EDTA tube via retro orbital puncture under anesthesia with isoflurane. The blood sample was put on ice and centrifuged to obtain a plasma sample (2000 g, 5 min under 4° C.) within 15 minutes. The brain collection was performed as follows: a mid-line incision was made in the animal's scalp and the skin was retracted. Using small bone cutters and rongeurs, the skull overlying the brain was removed. The brain was removed using a spatula and the brain rinsed with cold saline. The brain was placed in screw-top tubes, and the tubes were stored at −70° C. until analysis. The IV dosing solution was prepared in 50 mM citrate buffer (pH 4.0) at 0.6 mg/mL.
Plasma Sample Preparation:
An aliquot of 30 μL sample was added to […] containing 50 ng/mL IS (Dexamethasone). The mixture was vortexed for 5 min and centrifuged at 14,000 rpm for 5 min. An aliquot of 5 μL supernatant was injected for LC-MS/MS analysis.
Brain Sample Preparation:
An aliquot of 30 μL brain homogenate (brain:PBS=1:3, w/v) sample was added to 150 μL IS in MeCN (Dexamethasone, 50 ng/mL). The mixture was vortexed for 5 min and centrifuged at 14,000 rpm for 5 min. An aliquot of 5 μL supernatant was injected for LC-MS/MS analysis.
The sample analysis was performed on LCMS/MS-003 (API4000, triple quadruple) under the following conditions: positive ion, ESI, MRM detection using dexamethasone as internal standard. HPLC conditions: mobile phase A: H2O (0.025% formic acid (FA) with 1 mM NH4OAc); mobile phase B: MeOH (0.025% FA with 1 mM NH4OAc) on Waters X-Bridge C18 (2.1×50 mm, 2.5 μm) column at 60° C.
A similar experiment was performed with 4 time points taken from 0-24 h.

[3] = mouse brain, read-out: AUClast (b) (area under the brain drug concentration-time curve)
[4] = mouse plasma, read-out: AUClast (p) (area under the plasma drug concentration-time curve)

`Cc1cccnc1C1CCCN1Cc1nc2ccccc2n1C1CCN(C)CC1` (stereo not shown) [Compound I-33] gave a Papp A→B at 90 min, 10 μM (in vitro) of 10 to 30 ×10⁻⁶ cm/s, a Papp B→A at 90 min, 10 μM (in vitro) of 10 to 30 ×10⁻⁶ cm/s and an efflux ratio at 90 min, 10 μM (in vitro) of 0.1 to 10. The IC50 (CXCR4 (U87.CXCR4 cells)) was 100 to 1000 nM, the IC50 [1] was 0.01 to 100 nM and the Kp [2] was 6.6. For the same compound, the clearance [2] was 27.5 mL/min/kg, the half-life [2] was 4.93 h and the AUC(0-t) [2, 3] was 1660 ng·h/mL. For the same compound, the AUC(0-t) [2, 4] was 252 ng·h/mL.
With `Cc1cccnc1CN1CCCC1c1nc2cccc(N3CCN(C)CC3)c2[nH]1` (stereo not shown) [Compound I-45] the Papp A→B at 90 min, 10 μM (in vitro) was 10 to 30 ×10⁻⁶ cm/s, the Papp B→A at 90 min, 10 μM (in vitro) was 10 to 30 ×10⁻⁶ cm/s and the efflux ratio at 90 min, 10 μM (in vitro) was 0.1 to 10. It also gave an IC50 (CXCR4 (U87.CXCR4 cells)) of 0.01 to 100 nM, an IC50 [1] of 0.01 to 100 nM and a Kp [2] of 5.51. For the same compound, the clearance [2] was 41.8 mL/min/kg, the half-life [2] was 3.99 h and the AUC(0-t) [2, 3] was 833 ng·h/mL. The AUC(0-t) [2, 4] was 151 ng·h/mL.
Work on `CN1CCN(c2c(CN3CCCC3c3ccccn3)nc3ccccn23)CC12CC2` (stereo not shown) [Compound I-58] yielded a Papp A→B at 90 min, 10 μM (in vitro) of 10 to 30 ×10⁻⁶ cm/s, a Papp B→A at 90 min, 10 μM (in vitro) of 10 to 30 ×10⁻⁶ cm/s and an efflux ratio at 90 min, 10 μM (in vitro) of 0.1 to 10. For the same compound, the IC50 (CXCR4 (U87.CXCR4 cells)) was 0.01 to 100 nM, the IC50 [1] was 0.01 to 100 nM and the Kp [2] was 3.13. It also gave a clearance [2] of 38.7 mL/min/kg, a half-life [2] of 3.43 h and an AUC(0-t) [2, 3] of 1230 ng·h/mL. For the same compound, the AUC(0-t) [2, 4] was 393 ng·h/mL.
In the case of `CN1CCN(c2c(CN3CCCC3c3ncccc3Cl)nc3ccccn23)CC1` (stereo not shown) [Compound I-59], the Papp A→B at 90 min, 10 μM (in vitro) is reported as 0.1 to 10 ×10⁻⁶ cm/s, the Papp B→A at 90 min, 10 μM (in vitro) is reported as 10 to 30 ×10⁻⁶ cm/s and the efflux ratio at 90 min, 10 μM (in vitro) is reported as 0.1 to 10. It also gave an IC50 (CXCR4 (U87.CXCR4 cells)) of 0.01 to 100 nM, an IC50 [1] of 0.01 to 100 nM and a Kp [2] of 1.05. For the same compound, the clearance [2] was 58.3 mL/min/kg, the half-life [2] was 3.71 h and the AUC(0-t) [2, 3] was 240 ng·h/mL. It also gave an AUC(0-t) [2, 4] of 227 ng·h/mL.
